Assay results as given in ChEMBL document CHEMBL1201862, “PubChem BioAssay data set” (2004).
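48-hour exposure; five concentrations; linearly interpolated endpoints. GI50 = concentration required for 50% inhibition of growth.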 Activity calls are given as the source filed them. Rule as the data show it: active = GI50 up to about 1.1 µM and inactive = higher.

Legend:
Assay in all cases: NCI-60 cell line screen, 48 h
A498 = system: A498
A549 = system: A549
CAKI-1 = system: CAKI-1
CCRF-CEM = system: CCRF-CEM
COLO 205 = system: COLO 205
DLD-1 = system: DLD-1
DMS-273 = system: DMS-273
EKVX = system: EKVX
HCC 2998 = system: HCC 2998
HCT-116 = system: HCT-116
HCT-15 = system: HCT-15
HOP-18 = system: HOP-18
HOP-62 = system: HOP-62
HOP-92 = system: HOP-92
HT-29 = system: HT-29
IGROV-1 = system: IGROV-1
K562 = system: K562
KM-20L2 = system: KM-20L2
KM12 = system: KM12
LOX IMVI = system: LOX IMVI
M19-MEL = system: M19-MEL
MCF7 = system: MCF7
Malme-3M = system: Malme-3M
NCI-H226 = system: NCI-H226
NCI-H23 = system: NCI-H23
NCI-H460 = system: NCI-H460
NCI-H522 = system: NCI-H522
NCI/ADR-RES = system: NCI/ADR-RES
OVCAR-3 = system: OVCAR-3
OVCAR-4 = system: OVCAR-4
OVCAR-5 = system: OVCAR-5
OVCAR-8 = system: OVCAR-8
RPMI-8226 = system: RPMI-8226
SF-268 = system: SF-268
SF-295 = system: SF-295
SF-539 = system: SF-539
SK-MEL-28 = system: SK-MEL-28
SK-MEL-2 = system: SK-MEL-2
SK-MEL-5 = system: SK-MEL-5
SK-OV-3 = system: SK-OV-3
SN12C = system: SN12C
SNB-19 = system: SNB-19
SNB-75 = system: SNB-75
SNB-78 = system: SNB-78
SW-620 = system: SW-620
U-251 = system: U-251
UACC-257 = system: UACC-257
UACC-62 = system: UACC-62
UO-31 = system: UO-31
XF498 = system: XF498
DMS-114 = system: DMS-114
HL-60 = system: HL-60
MOLT-4 = system: MOLT-4
RXF 393 = system: RXF 393
786-0 = system: 786-0
ACHN = system: ACHN
LXFL 529 = system: LXFL 529
M14 = system: M14
TK-10 = system: TK-10

C[C@]12CC[C@H](O)C=C1CC[C@@H]1[C@@H]2CC[C@]2(C)C(c3ccc(=O)oc3)CC[C@]12O (stereo not given in full)
GI50 (A498): 12.5 nM (active) | GI50 (A549): 12.5 nM (active) | GI50 (CAKI-1): 15.1 nM (active) | GI50 (CCRF-CEM): 12.5 nM (active) | GI50 (COLO 205): 33 nM (active) | GI50 (DLD-1): 17.4 nM (active) | GI50 (DMS-273): 12.5 nM (active) | GI50 (EKVX): 31.1 nM (active) | GI50 (HCC 2998): 37.2 nM (active) | GI50 (HCT-116): 12.5 nM (active) | GI50 (HCT-15): 17.5 nM | GI50 (HOP-18): 14 nM (active) | GI50 (HOP-62): 12.5 nM (active) | GI50 (HOP-92): 14 nM (active) | GI50 (HT-29): 35 nM (active) | GI50 (IGROV-1): 14.1 nM (active) | GI50 (K562): 12.5 nM (active) | GI50 (KM-20L2): 24.4 nM (active) | GI50 (KM12): 33.6 nM (active) | GI50 (LOX IMVI): 12.5 nM (active) | GI50 (M19-MEL): 12.9 nM (active) | GI50 (MCF7): 15 nM (active) | GI50 (Malme-3M): 13.5 nM (active) | GI50 (NCI-H226): 37.5 nM (active) | GI50 (NCI-H23): 12.5 nM (active) | GI50 (NCI-H460): 13.2 nM (active) | GI50 (NCI-H522): 12.5 nM (active) | GI50 (NCI/ADR-RES): 32.8 nM (active) | GI50 (OVCAR-3): 12.5 nM (active) | GI50 (OVCAR-4): 14.6 nM (active) | GI50 (OVCAR-5): 108 nM (active) | GI50 (OVCAR-8): 15 nM (active) | GI50 (RPMI-8226): 12.5 nM (active) | GI50 (SF-268): 12.5 nM (active) | GI50 (SF-295): 13.4 nM (active) | GI50 (SF-539): 12.5 nM (active) | GI50 (SK-MEL-28): 26.6 nM (active) | GI50 (SK-MEL-2): 17.6 nM (active) | GI50 (SK-MEL-5): 12.5 nM (active) | GI50 (SK-OV-3): 29.4 nM (active) | GI50 (SN12C): 12.5 nM (active) | GI50 (SNB-19): 32.7 nM (active) | GI50 (SNB-75): 15.6 nM (active) | GI50 (SNB-78): 16.3 nM (active) | GI50 (SW-620): 14.9 nM (active) | GI50 (U-251): 15.3 nM (active) | GI50 (UACC-257): 18.1 nM (active) | GI50 (UACC-62): 15.4 nM (active) | GI50 (UO-31): 14.1 nM (active) | GI50 (XF498): 18.4 nM (active)

CC1(C)N=C(N)N=C(N)N1c1ccc(OCCCOc2ccccc2)c(Cl)c1
GI50 (A498): 1400 nM (inactive) | GI50 (A549): 47.3 nM (active) | GI50 (CAKI-1): 1770 nM (inactive) | GI50 (CCRF-CEM): 175 nM (active) | GI50 (COLO 205): 112 nM (active) | GI50 (DLD-1): 1510 nM (inactive) | GI50 (DMS-114): 76 nM (active) | GI50 (DMS-273): 26.2 nM (active) | GI50 (EKVX): 303 nM (active) | GI50 (HCC 2998): 315 nM (active) | GI50 (HCT-116): 26 nM (active) | GI50 (HCT-15): 2480 nM | GI50 (HL-60): 32.2 nM (active) | GI50 (HOP-18): 670 nM (active) | GI50 (HOP-92): 409 nM (active) | GI50 (HT-29): 16.1 nM (active) | GI50 (IGROV-1): < 30.1 nM (active) | GI50 (K562): 2480 nM (inactive) | GI50 (KM-20L2): 71.5 nM (active) | GI50 (KM12): 122 nM (active) | GI50 (LOX IMVI): 45.7 nM (active) | GI50 (M19-MEL): 147 nM (active) | GI50 (MCF7): 327 nM (active) | GI50 (MOLT-4): 33.6 nM (active) | GI50 (Malme-3M): 490 nM (active) | GI50 (NCI-H226): 798 nM (active) | GI50 (NCI-H23): 239 nM (active) | GI50 (NCI-H460): 45.7 nM (active) | GI50 (NCI-H522): 247 nM (active) | GI50 (NCI/ADR-RES): > 100000 nM (inactive) | GI50 (OVCAR-3): 406 nM (active) | GI50 (OVCAR-4): 156 nM (active) | GI50 (OVCAR-5): 295 nM (active) | GI50 (OVCAR-8): 514 nM (active) | GI50 (RPMI-8226): 547 nM (active) | GI50 (RXF 393): 479 nM (active) | GI50 (SF-268): 58.5 nM (active) | GI50 (SF-295): 538 nM (active) | GI50 (SF-539): 336 nM (active) | GI50 (SK-MEL-28): 809 nM (active) | GI50 (SK-MEL-2): 1370 nM (inactive) | GI50 (SK-MEL-5): 265 nM (active) | GI50 (SK-OV-3): 7310 nM (inactive) | GI50 (SN12C): 202 nM (active) | GI50 (SNB-19): 37.9 nM (active) | GI50 (SNB-75): 948 nM (active) | GI50 (SNB-78): 538 nM (active) | GI50 (SW-620): 35.6 nM (active) | GI50 (U-251): < 23.6 nM (active) | GI50 (UACC-257): 766 nM (active) | GI50 (UACC-62): 472 nM (active) | GI50 (XF498): < 10 nM (active)

O=C1C(c2ccc(Br)cc2)=[N+]([O-])c2ccccc21
GI50 (786-0): 17100 nM (inactive) | GI50 (A498): 22100 nM (inactive) | GI50 (A549): 20900 nM (inactive) | GI50 (ACHN): 13400 nM (inactive) | GI50 (CCRF-CEM): 4120 nM (inactive) | GI50 (COLO 205): 16300 nM (inactive) | GI50 (DLD-1): 8510 nM (inactive) | GI50 (DMS-114): 3940 nM (inactive) | GI50 (EKVX): 16000 nM (inactive) | GI50 (HCC 2998): 13500 nM (inactive) | GI50 (HCT-116): 14400 nM (inactive) | GI50 (HCT-15): 5970 nM | GI50 (HL-60): 2140 nM (inactive) | GI50 (HOP-18): 11900 nM (inactive) | GI50 (HOP-62): 27000 nM (inactive) | GI50 (HOP-92): 7210 nM (inactive) | GI50 (HT-29): 21600 nM (inactive) | GI50 (IGROV-1): 17400 nM (inactive) | GI50 (K562): 10200 nM (inactive) | GI50 (KM-20L2): 20700 nM (inactive) | GI50 (KM12): 14800 nM (inactive) | GI50 (LOX IMVI): 8750 nM (inactive) | GI50 (LXFL 529): 5160 nM (inactive) | GI50 (M14): 16300 nM (inactive) | GI50 (M19-MEL): 9620 nM (inactive) | GI50 (MOLT-4): 4790 nM (inactive) | GI50 (Malme-3M): 18400 nM (inactive) | GI50 (NCI-H226): 13100 nM (inactive) | GI50 (NCI-H23): 15800 nM (inactive) | GI50 (NCI-H460): 16900 nM (inactive) | GI50 (NCI-H522): 2450 nM (inactive) | GI50 (OVCAR-3): 14900 nM (inactive) | GI50 (OVCAR-5): 20800 nM (inactive) | GI50 (OVCAR-8): 10200 nM (inactive) | GI50 (RPMI-8226): 3880 nM (inactive) | GI50 (RXF 393): 16900 nM (inactive) | GI50 (SF-268): 17600 nM (inactive) | GI50 (SF-295): > 10000 nM (inactive) | GI50 (SF-539): 20500 nM (inactive) | GI50 (SK-MEL-28): 20200 nM (inactive) | GI50 (SK-MEL-2): 11700 nM (inactive) | GI50 (SK-MEL-5): 9550 nM (inactive) | GI50 (SK-OV-3): 55100 nM (inactive) | GI50 (SN12C): 15500 nM (inactive) | GI50 (SNB-19): 21000 nM (inactive) | GI50 (SNB-75): 16600 nM (inactive) | GI50 (SW-620): 26100 nM (inactive) | GI50 (TK-10): 15900 nM (inactive) | GI50 (U-251): 14700 nM (inactive) | GI50 (UACC-257): 11300 nM (inactive) | GI50 (UACC-62): 16000 nM (inactive) | GI50 (UO-31): 14300 nM (inactive) | GI50 (XF498): 17500 nM (inactive)
